Consider two molecules from patent US8987281B2, “Methods of treating cancer” (Endocyte, Inc., priority 2010, dated 2015).

For this assay, the system named is KB tumors. The assay can be described thus: In vivo antitumor experiments, s.c. KB tumors in nu/nu mice. The note with it: i.v., EC145 1 μmol/kg/injection TIW 2 weeks. On the procedure:
Four to six week-old female nu/nu mice (Charles River, Wilmington, Mass.) or six to seven week-old female Balb/c mice (Harlan Sprague Dawley, Inc., Indianapolis, Ind.) were maintained on a standard 12 h light-dark cycle and fed ad libitum with folate-deficient chow (Harlan diet #TD00434, Harlan Teklad, Madison, Wis.) for the duration of the experiment. FR-positive human nasopharyngeal KB cells and human ovarian IGROV cells were grown continuously as a monolayer, using folate-free RPMI medium (FFRPMI) containing 10% heat-inactivated fetal calf serum (HIFCS) at 37° C. in a 5% CO2/95% air-humidified atmosphere with no antibiotics. Syngeneic FR-positive Madison 109 (M109) lung carcinoma cells were generated from M109 tumors and cultured for a few days in FFRPMI containing 10% HIFCS for a few days before implantation in mice. KB cells (1×10^6 per nu/nu mouse), M109 cells (1×10^6 per Balb/c mouse), IGROV cells (4×10^6 per nu/nu mouse) in 100 μL were injected in the subcutis of the dorsal medial area. Mice were divided into groups of five, and test articles were freshly prepared and injected through the lateral tail vein under sterile conditions in a volume of 200 μL of phosphate-buffered saline (PBS). […] The mice in the control groups received no treatment. Growth of each s.c. tumor was followed by measuring the tumor three times per week during treatment and twice per week thereafter until a volume of 1500 mm^3 was reached. Tumors were measured in two perpendicular directions using Vernier calipers, and their volumes were calculated as 0.5×L×W^2, where L=measurement of longest axis in mm and W=measurement of axis perpendicular to L in mm. As a general measure of toxicity, changes in body weights were determined on the same schedule as tumor volume measurements. Survival of animals was monitored daily. Animals that were moribund (or unable to reach food or water) were euthanized by CO2 asphyxiation. All in vivo studies were performed in accordance with the American Accreditation Association of Laboratory Animal Care guidelines.
For individual tumors, a partial response (PR) was defined as volume regression>50% but with measurable tumor (>2 mm^3) remaining at all times. Complete response (CR) was defined as a disappearance of measurable tumor mass (<2 mm^3) at some point until the end of the study. Cures were defined as CR's without tumor re-growth within the study time frame.
See FIG. 1 for tumor response and FIG. 2 for weight change during the treatment period.
See FIG. 3 for tumor response and FIG. 4 for weight change during the treatment period.
See FIG. 5 for tumor response and FIG. 6 for weight change during the treatment period.

The mark [1] stands for this setting: KB tumors 144-212 mm^3, five animals per group, Docetaxel 10 mg/kg TIW 1 week (FIG. 1).
Setting [2] is: KB tumors 111-173 mm^3, five animals per group, Paclitaxel 20 mg/kg TIW in Cremophor/ethanol 1 week (FIG. 5).

On to `CC(=O)O[C@@]12CO[C@@H]1C[C@H](O)[C@@]1(C)C(=O)[C@H](O)C3=C(C)[C@@H](OC(=O)[C@H](O)[C@@H](NC(=O)OC(C)(C)C)c4ccccc4)C[C@@](O)([C@@H](OC(=O)c4ccccc4)[C@H]21)C3(C)C` [Docetaxel, docetaxel], for which, under setting [1], the Cures entry is recorded as “no”, the complete responses entry is recorded as “no” and the partial responses result is reported as “no”.
Under setting [2], `CC(=O)O[C@H]1C(=O)[C@@]2(C)[C@H]([C@H](OC(=O)c3ccccc3)[C@]3(O)C[C@H](OC(=O)[C@H](O)[C@@H](NC(=O)c4ccccc4)c4ccccc4)C(C)=C1C3(C)C)[C@]1(OC(C)=O)CO[C@@H]1C[C@@H]2O` [Paclitaxel, paclitaxel] yielded a Cures of 3 and a complete responses of 2.
